± gives the expanded uncertainty stated by the source.
Settings: Crystal

For `CCCCCCCCCCO` [decan-1-ol], the Normal melting temperature (Visual) was 7.00 °C.

`CC(C)CCC[C@@H](C)[C@H]1CC[C@H]2[C@@H]3CC=C4C[C@@H](O)CC[C@]4(C)[C@H]3CC[C@]12C` [.DELTA.5-cholesten-3β-ol] showed a Normal melting temperature (visual observation) of 148.00 ± 0.39 °C.
